According to patent US12161694B2, “Methods and compositions for regulating innate lymphoid cell inflammatory responses” (The Broad Institute, Inc., priority 2017, dated 2024):
“Also recorded” adds a separate entry of the source. Where no end group is shown, it is not given here.

Key:
[1] = system: lung-resident ILCs; test: Droplet-based scRNA-seq of lung-resident ILCs after in vivo treatment; set-up: species or system mouse; conditions: PBS, NMU, IL-25, combination
From the text: Mice and in vivo ILC activation. C57Bl/6J mice were purchased from the Jackson Laboratory. Nmur1-LacZ reporter mice with a LacZ cassette knocked into the Nmur1 locus were rederived from Nmur1^tm1.1(KOMP)Vleg sperm obtained from the trans-NIH Knock-Out Mouse Project (KOMP) Repository. Mice were housed under specific-pathogen-free conditions. For experiments, mice were matched for sex and age, and most mice were 6-10 weeks old. Where indicated, mice were anesthetized with Isoflurane and treated intranasally with the indicated stimuli (500 ng IL-25, 500 ng IL-33, or 20 μg Neuromedin U) daily for three consecutive days. The total administered volume was 20 μl for all conditions. Mice were randomly assigned to treatment groups after matching for sex and age. […]
Fluorescence-activated cell sorting of innate lymphoid cells. […]
Analysis of droplet-based scRNA-Seq data: Initial QC. Gene counts were obtained by aligning reads to the mm10 genome using CellRanger software (10× Genomics), with the genome reannotated at the 3′ end of Nmur1 (see main text). […]
Analysis of droplet-based scRNA-Seq samples: Signature scores. Applicants calculated signature scores as the log of the geometric mean of the TPX values for the genes in the signature. […] Then the signature score for that cell is calculated as log(IIg(xg+1)^1/m) which is equivalent to the arithmetic mean of the log TPX values. […]

[2] = system: lung-resident ILCs; test: Flow cytometry of lung ILCs after in vivo treatment (Ki-67, ILC frequency, IL-17RB, surface and intracellular markers); set-up: species or system mouse
From the text: Mice and in vivo ILC activation. C57Bl/6J mice were purchased from the Jackson Laboratory. Nmur1-LacZ reporter mice with a LacZ cassette knocked into the Nmur1 locus were rederived from Nmur1^tm1.1(KOMP)Vleg sperm obtained from the trans-NIH Knock-Out Mouse Project (KOMP) Repository. Mice were housed under specific-pathogen-free conditions. For experiments, mice were matched for sex and age, and most mice were 6-10 weeks old. Where indicated, mice were anesthetized with Isoflurane and treated intranasally with the indicated stimuli (500 ng IL-25, 500 ng IL-33, or 20 μg Neuromedin U) daily for three consecutive days. The total administered volume was 20 μl for all conditions. Mice were randomly assigned to treatment groups after matching for sex and age. […] Mice were treated intranasally with 10 μg HDM on day 0, 7, 8, and 9, prior to sacrifice on day 10. […]
Flow cytometry. […] Cells were stained on ice with antibodies for surface molecules and the live/dead marker 7AAD and analyzed on a LSRFortessa (BD Biosciences). […]
Lung analysis. […] BALF was centrifuged, and the supernatant was used for analyzing cytokine levels and the cell pellet was resuspended, counted, and used for flow cytometry. […] Where indicated, cells were diluted in 10% Trypan Blue and viable cells counted using a hemocytometer. […]

Neuromedin U (FRVDEEFQSPFASQSRGYFLFRPRN-NH2; listed as Homo sapiens) [NMU, neuropeptide ligand of Nmur1 (US Biological)]
transcriptional profiles of ILCs (tSNE localization) [1]: largely localized with those from control mice; also recorded: transcriptionally similar to control ILCs
Galectin-3 (Lgals3) and gp49 (Lilrb4a) expression on ILCs [2]: up-regulated
